Measured values published in ChEMBL document CHEMBL1157286, “Schisandrene, a dibenzocyclooctadiene lignan from Schisandra chinensis: structure-antioxidant activity relationships of dibenzocyclooctadiene lignans” (J Nat Prod, 2006).
pIC50: −log10 of the molar value. Active and inactive are the calls of the source. The calls are words filed in the database; no cut-off is given here.

How the values were obtained:
HL-60 [1] = test: Cytotoxicity against human HL60 cells by XTT assay; assay type: functional, cell-based
HL-60 [2] = test: Antioxidant activity in human HL60 cells assessed as inhibition of TPA-stimulated hydrogen peroxide induced DCFH-DA oxidation by fluorometric microplate assay; assay type: functional, cell-based
LLC-PK1 = test: Cytotoxicity against pig LLC-PK1 cells upto 48 uM; assay type: cell-based, Sus scrofa
Vero = test: Cytotoxicity against african green monkey Vero cells upto 48 uM; assay type: cell-based; conditions: chlorocebus sabaeus

For `COc1cc2c(c(OC)c1OC)-c1c(cc3c(c1OC)OCO3)C[C@H](C)[C@](C)(O)C2`, the Activity (HL-60 [1]) was “inactive” and the Activity (HL-60 [2]) was “inactive”.
In the case of `C/C=C(/C)C(=O)Oc1c(OC)c(OC)cc2c1-c1c(cc(OC)c(OC)c1OC)CC(C)(O)C(C)C2` (centres undefined) [ANGELOYLGOMISIN], the Activity (LLC-PK1) was “Not Active”, the pIC50 (HL-60 [1]) was 4.34 and the Activity (Vero) was “Not Active”. The pIC50 (HL-60 [2]) was 4.09.
With `O=C1O[C@H]([C@@H](O)CO)C(O)=C1O` [ASCORBIC ACID] the Activity (HL-60 [1]) was “inactive” and the pIC50 (HL-60 [2]) was 4.99.
`COc1cc2c(c(OC)c1OC)-c1c(cc(OC)c(OC)c1OC(=O)c1ccccc1)CC(C)C(C)(O)C2` (centres undefined) [BENZOYLGOMISIN H] was tested, and the Activity (LLC-PK1) was “Not Active”, the pIC50 (HL-60 [1]) was 4.39 and the Activity (Vero) was “Not Active”. The Activity (HL-60 [2]) was “inactive”.
For `COc1cc2c(c(OC)c1OC)-c1c(cc3c(c1OC)OCO3)C[C@H](C)[C@@](C)(O)C2` [GOMISIN A], the Activity (LLC-PK1) was “Not Active” and the Activity (Vero) was “Not Active”.
`C/C=C(/C)C(=O)O[C@H]1c2cc(OC)c(OC)c(OC)c2-c2c(cc3c(c2OC)OCO3)C[C@H](C)[C@]1(C)O` [GOMISIN B] was tested, and the Activity (LLC-PK1) was “Not Active” and the Activity (Vero) was “Not Active”.
`C/C=C(\C)C(=O)O[C@H]1c2cc(OC)c(OC)c(OC)c2-c2c(cc3c(c2OC)OCO3)C[C@H](C)[C@]1(C)O` [GOMISIN B] was tested, and the Activity (HL-60 [1]) was “inactive” and the pIC50 (HL-60 [2]) was less than 3.93.
In the case of `COc1cc2c(c(OC)c1OC)-c1c(cc3c(c1OC)OCO3)[C@H](OC(=O)c1ccccc1)[C@@](C)(O)[C@@H](C)C2` [GOMISIN G], the Activity (LLC-PK1) was “Not Active”, the pIC50 (HL-60 [1]) was 4.32 and the Activity (Vero) was “Not Active”. The pIC50 (HL-60 [2]) was 4.42.
`COc1cc2c(c(O)c1OC)-c1c(cc(OC)c(OC)c1OC)CC(C)C(C)C2` (centres undefined) [GOMISIN K3] was tested, and the Activity (LLC-PK1) was “Not Active”, the pIC50 (HL-60 [1]) was 4.25 and the Activity (Vero) was “Not Active”. For the same compound, the pIC50 (HL-60 [2]) was less than 3.81.
For `CC(Cc1ccc(O)c(O)c1)C(C)Cc1ccc(O)c(O)c1` (centres undefined) [NORDIHYDROGUAIARETIC ACID], the pIC50 (HL-60 [1]) was 4.91 and the pIC50 (HL-60 [2]) was 5.64.
In the case of `C=C1[C@H](C)Cc2cc3c(c(OC)c2-c2c(cc4c(c2OC)OCO4)[C@H]1OC(=O)c1ccccc1)OCO3` [SCHISANDRENE], the Activity (LLC-PK1) was “Not Active”, the pIC50 (HL-60 [1]) was 4.25 and the Activity (Vero) was “Not Active”. For the same compound, the pIC50 (HL-60 [2]) was 5.55.
`COc1cc2c(c(OC)c1OC)-c1c(cc(OC)c(OC)c1OC)C[C@H](C)[C@H](C)C2` [SCHISANDRIN A] was tested, and the Activity (LLC-PK1) was “Not Active”, the Activity (HL-60 [1]) was “inactive” and the Activity (Vero) was “Not Active”. The Activity (HL-60 [2]) was “inactive”.
In the case of `COc1c2c(cc3c1-c1c(cc4c(c1OC)OCO4)C[C@H](C)[C@H](C)C3)OCO2` [SCHISANDRIN C], the Activity (LLC-PK1) was “Not Active”, the pIC50 (HL-60 [1]) was 4.39 and the Activity (Vero) was “Not Active”. The Activity (HL-60 [2]) was “inactive”.
`COc1cc2c(c(OC)c1OC)-c1c(cc(OC)c(OC)c1OC)C[C@](C)(O)[C@@H](C)C2` [SCHIZANDRIN] was tested, and the Activity (LLC-PK1) was “Not Active”, the Activity (HL-60 [1]) was “inactive” and the Activity (Vero) was “Not Active”. For the same compound, the Activity (HL-60 [2]) was “inactive”.
For `C/C=C(\C)C(=O)Oc1c(OC)c(OC)cc2c1-c1c(cc(OC)c(OC)c1OC)C[C@](C)(O)[C@@H](C)C2` [TIGLOYLGOMISIN H], the Activity (LLC-PK1) was “Not Active”, the pIC50 (HL-60 [1]) was 4.35 and the Activity (Vero) was “Not Active”. The pIC50 (HL-60 [2]) was less than 3.90.
For `Cc1c(C)c2c(c(C)c1O)CCC(C)(C(=O)O)O2` (centres undefined) [TROLOX], the Activity (HL-60 [1]) was “inactive” and the pIC50 (HL-60 [2]) was 5.44.
With `COc1cc2c(c(OC)c1OC)-c1c(cc3c(c1OC)OCO3)C[C@H](C)[C@H](C)C2` [WUWEIZISU B] the Activity (LLC-PK1) was “Not Active”, the pIC50 (HL-60 [1]) was 4.28 and the Activity (Vero) was “Not Active”. For the same compound, the Activity (HL-60 [2]) was “inactive”.
